Non-standard residues stand in square brackets, D forms with d. Residues, ends and D or L forms follow the SMILES beside them. No end group written: not given here. *: point of attachment. dTrp(2-Me) = Cc1[nH]c2ccccc2c1C[C@@H](N)C(=O)O; Octanoyl = CCCCCCCC(=O)*
Key:
[1] = preprandial GHS administration in normal human beings with GH receptor antagonist pegvisomant; type: in vivo; details: 1 μg/Kg i.v. preprandial
From the text: Because in this study GH-action was blocked by pegvisomant, these GHS-mediated metabolic changes on the “gastro-entero-hepatic axis” must be direct and non-pituitary mediated.

[2] = ghrelin and GH rhythms during three days fasting, GHRP-6 bolus, healthy volunteers; type: in vivo, human; details: 1 μg/kg on the 3rd day of fasting
Description: In order to understand the diurnal rhythms of ghrelin and GH secretion during fasting, a study was conducted on 10 healthy human volunteers with normal body mass index. […] Fasting rapidly induces a diurnal ghrelin rhythm that is followed by a similar GH rhythm. […] This phenomenon cannot be explained by changes in insulin, glucose or free fatty acid levels. Thus it appears that the metabolic effects of ghrelin are distinct from its effects on GH secretion.
By the use of the GH receptor antagonist pegvisomant, indirect evidence was provided that these changes in serum ghrelin levels are not regulated by the GH receptor. Finally, it was shown that administration of the synthetic GHS, GHRP-6, produced a decrease in peak ghrelin levels, but this effect was only observed after several hours, indicating the existence of a long-loop feedback system of GHS's on ghrelin secretion.

HIT-T15 cells [3] = experiment: HIT-T15 cell proliferation, BrdU incorporation; type: cell-based; details: for effect on unacylated ghrelin-induced cell proliferation: preincubation, unacylated ghrelin 100 nM, NF449 10 μM, PTX 50 ng/ml
Description: This effect was similar to that observed in cells cultured in normal conditions, i.e. in the presence of serum (15% HS, 2.5% FBS).
To investigate the signaling pathways involved in ghrelin mitogenic effect, the cells were preincubated (30 min) with NF449, a selective Gαs protein-coupled receptor antagonist.
In FIG. 8A to 8E, HIT-T15 cells were cultured in serum-free medium (Control) for 24 h, UAG alone or with NF449 and pertussis toxin (PTX) were added to the incubation medium for further 24 h. In FIG. 8A, cell proliferation was measured by BrdU uptake in cells cultured in the presence or absence of serum, UAG at the concentrations indicated. […] Data are expressed as the percentage relative to control and are the means±SEM of eight replicates within a single representative experiment that was repeated at least 3 times (*P<0.05,**P<0.01).
(§1) In FIG. 9B, apoptosis is evaluated by counting condensed/fragmented Hoechst-stained nuclei (SF, serum-free medium). Values are expressed as percent of apoptotic cells and are the mean±SEM of duplicate determinations (500 cells each) of three independent experiments (*P<0.05; **P<0.01). In FIG. 9C, cell proliferation is assessed by BrdU uptake (ELISA). The results are expressed as percent of control (serum starved cells) and are the mean±SEM of three independent experiments (*P<0.05,**P<0.01). FIG. 9D illustrates ghrelin secretion in HIT-T15 conditioned medium following exposure to either serum, SF±cytokines. The results are the mean±SEM of three independent experiments, each performed in quadruplicate (*P<0.05). In FIG. 9E, apoptosis is determined by Hoechst 33258 of cells cultured for 48 h in the presence of serum or in SF medium alone with addition of an anti-ghrelin antibody (α-ghrelin Ab), (*P<0.05,**P<0.01 vs 0 μg/ml α-ghrelin Ab in each condition).

HIT-T15 cell membranes = experiment: 125I-[Tyr4]-unacylated ghrelin binding to HIT-T15 cell membranes; details: unlabeled competitor
From the text: Binding is expressed as percentage of control (specific binding in the absence of unlabeled competitor);

HIT-T15 cells [4] = experiment: HIT-T15 cell survival, MTT assay; type: cell-based; details: serum-free conditions and in the presence of cytokines
[5] = 16 h intravenous infusion of unacylated ghrelin in healthy males; type: in vivo, human; details: 1.0 μg/Kg/h iv 16 h
HIT-T15 cells [6] = experiment: HIT-T15 apoptosis, Hoechst 33258 staining; type: cell-based
From the text: Apoptosis is the main form of pancreatic β-cell death in animal models of type 1 diabetes mellitus. […] Moreover, they partially lost their capacity to form islet-like structures (FIG. 9A, upper panel, and 9B). Cytokines further increased apoptosis (˜27%), cells appearing smaller and unable to form islets (FIG. 9A, lower panel, and FIG. 9B). […] Accordingly, others have reported that ghrelin exerts proliferative and antiapoptotic effects at high concentrations […] in different cell types.
as §1

cAMP = experiment: intracellular cAMP concentration in HIT-T15 cells; type: cell-based; details: 100 nM, with IBMX
Description: Initially, the unacylated ghrelin-induced cAMP intracellular variation was examined.
cAMP induction by ghrelin was then evaluated at 15 min in either serum-free medium alone or with addition of IFN-γ/TNF-α in the presence of IBMX.
The results are the mean±SEM of three independent experiments performed in triplicate (*P<0.05 vs basal time point). FIG. 10B illustrates the cAMP levels in cells incubated in the presence of serum or in serum-free (SF) medium±unacylated ghrlein (100 nM each) alone or with IFN-γ/TNF-α combination (100 ng/ml and 200 ng/ml respectively). Data are the mean±SEM of at least three independent experiments performed in triplicate (*P<0.05).

caspase-3 = caspase-3 activation in HIT-T15 cells; type: cell-based; details: serum-starved and cytokine-treated cells, data not shown
[7] = co-administration of unacylated ghrelin and ghrelin in normal human volunteers; type: in vivo; details: 1 μg/kg iv at 0 min with ghrelin 1 μg/kg iv
From the text: Thus it appears that unacylated ghrelin is acting as a functional antagonist of the peripheral actions of ghrelin.

[8] = glucose and insulin after single intravenous human ghrelin in healthy young male volunteers; type: in vivo; details: 1.0 μg/kg i.v. at 0', vs placebo

GHRP-6
serum insulin concentrations ([1]; in the presence of pegvisomant): impressive increase in serum insulin concentrations | postprandial serum glucose levels ([1]; only in the presence of pegvisomant): induces a postprandial increase in serum glucose levels | peak ghrelin levels [2]: attenuated peak ghrelin levels in the afternoon

O=C(Nc1cc(C(=O)Nc2ccc(S(=O)(=O)O)cc2S(=O)(=O)O)cc(C(=O)Nc2ccc(S(=O)(=O)O)cc2S(=O)(=O)O)c1)Nc1cc(C(=O)Nc2ccc(S(=O)(=O)O)cc2S(=O)(=O)O)cc(C(=O)Nc2ccc(S(=O)(=O)O)cc2S(=O)(=O)O)c1 [NF449, reference compound]
effect on unacylated ghrelin-induced cell proliferation (HIT-T15 cells [3]): complete blockade

pertussis toxin [reference compound]
effect on unacylated ghrelin-induced cell proliferation (HIT-T15 cells [3]): had no effect

Cc1[nH]c2ccccc2c1C[C@@H](NC(=O)[C@@H](N)Cc1cnc[nH]1)C(=O)N[C@@H](C)C(=O)N[C@@H](Cc1c[nH]c2ccccc12)C(=O)N[C@H](Cc1ccccc1)C(=O)N[C@@H](CCCCN)C(N)=O [hexarelin] (H-H[dTrp(2-Me)]AW[dF]K-NH2)
competition with 125I-labeled [Tyr4]-unacylated ghrelin for binding sites (HIT-T15 cell membranes): competed

NH2Gly-Ser-Ser-Phe-Leu-Ser-Pro-Glu-His-Gln-Arg-Val-Gln-Gln-Arg-Lys-Glu-Ser-Lys-Lys-Pro-Pro-Ala-Lys-Leu-Gln-Pro-Arg (H-GSSFLSPEHQRVQQRKESKKPPAKLQPR) [unacylated ghrelin]
cell viability (MTT) (HIT-T15 cells [4]): significantly increased cell viability | cell proliferation in the presence of IFN-γ/TNF-α (HIT-T15 cells [3]; 100 nM, cytokines 100 ng/ml and 200 ng/ml, 24 h): dramatically restored cell proliferation | cell proliferation (BrdU incorporation) (HIT-T15 cells [3]; serum-free medium, 1 pm to 1 μm, 24 h): significantly and dose-dependently induced cell proliferation | FFA profile ([5]; post-prandially and at fasting): reduced both post-prandially (p<0.01) and at fasting | glucagon profile ([5]; vs saline): significantly modified the profile of all parameters, except glucagon | total insulin AUC ([5]; vs saline): did not modify | GH AUC ([5]; vs saline, p<0.01): lower | cortisol AUC ([5]; vs saline, p<0.01): lower | free fatty acid (FFA) AUC ([5]; vs saline, p<0.01): decreased | glucose AUC ([5]; vs saline, p<0.01): decreased | early insulin response to dinner and breakfast ([5]; dinner p<0.01, breakfast p<0.05): enhanced | serum-starvation-induced apoptosis (HIT-T15 cells [6]; 100 nm, serum-deprived medium): almost completely prevented | apoptosis triggered by the IFN-γ/TNF-α combination, percent of apoptotic cells (HIT-T15 cells [6]; 100 nm, cytokines alone ~27%): ~12% | lowest significantly active concentration, antiapoptotic effect (HIT-T15 cells [6]; data not shown): 1 nm | cAMP levels over time (cAMP; serum starved cells, 5 to 60 min): transient increase within 5 min | cAMP at 15 min (cAMP; serum-free medium alone or with IFN-γ/TNF-α): significantly up-regulated cAMP | caspase-3 activation (caspase-3): significantly reduced | ghrelin-induced decrease in insulin levels [7]: totally prevented | ghrelin-induced increase in glucose [7]: totally prevented | competition with 125I-labeled [Tyr4]-unacylated ghrelin for binding sites (HIT-T15 cell membranes): competed

ghrelin: gastric hormone of 28 amino acids with an n-octanoyl ester at its third serine residue (GSS(Octanoyl)FLSPEHQRVQQRKESKKPPAKLQPR)
Δ glucose [8]: elevation in glucose | Δ insulin [8]: acute decrease in insulin

— US8071368B2, “Methods for promoting growth and survival of insulin-secreting cells” (Alizé Pharma SAS, priority 2001, dated 2011)
